# Test results published in patent publication US6740038B2, “Systems and methods for assessing vascular effects of a treatment” (New Health Sciences, Inc., priority 2000, dated 2004).
# Test system: cerebral vessels
# Details: person after first stroke, Plavix +/- calcium channel blocker
# Description: A person with a history of hypertension experiences a first stroke in the left middle cerebral artery resulting in deficits in the right hand, leg, and some deficits in motor speech. These are the symptoms upon presentation in the neurological clinic. Transcranial Doppler analysis of all cerebral vessels is performed in addition to analyzing the common carotid artery and the internal carotid artery.
# The physician considers prescription of Plavix together with a calcium channel blocker. Transcranial Doppler analysis was performed at monthly intervals. […] The physician subsequently administers a higher dose. Again, transcranial Doppler analysis is performed on all cerebral vessels.
# The patient is then monitored on a monthly basis after the initial prescription of Plavix in order to determine whether vascular changes are occurring which necessitate alteration in the therapy.
smiles,measurement,setting,value
COC(=O)[C@H](c1ccccc1Cl)N1CCc2sccc2C1 [Plavix],auto-regulation curve,higher dose,left-shifts toward normal
same,pulsatility index,higher dose,decreases
same,vascular dynamics of the vessel studied,higher dose,marked changes
same,changes in the individual cerebral vessels,"initial dose, transcranial Doppler at monthly intervals",no effect
